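The compound was tested at five concentrations on cells cultured in 96-well plates, with a 48-hour exposure period. Here, GI50 denotes the concentration required for 50% inhibition of growth.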 Active and inactive are the calls of the source. No stated cut-off is given here; in the data, active = GI50 up to about 1.1 µM and inactive = higher.
What was measured:
Assay in all cases: NCI-60 cell line screen, 48 h
786-0 = tested on: 786-0
A498 = tested on: A498
A549 = tested on: A549
ACHN = tested on: ACHN
BT-549 = tested on: BT-549
CAKI-1 = tested on: CAKI-1
CCRF-CEM = tested on: CCRF-CEM
COLO 205 = tested on: COLO 205
DU-145 = tested on: DU-145
EKVX = tested on: EKVX
HCC 2998 = tested on: HCC 2998
HCT-116 = tested on: HCT-116
HCT-15 = tested on: HCT-15
HL-60 = tested on: HL-60
HOP-62 = tested on: HOP-62
HOP-92 = tested on: HOP-92
HT-29 = tested on: HT-29
Hs-578T = tested on: Hs-578T
IGROV-1 = tested on: IGROV-1
K562 = tested on: K562
KM12 = tested on: KM12
LOX IMVI = tested on: LOX IMVI
MCF7 = tested on: MCF7
MDA-MB-231 = tested on: MDA-MB-231
MDA-MB-435 = tested on: MDA-MB-435
MDA-N = tested on: MDA-N
MOLT-4 = tested on: MOLT-4
Malme-3M = tested on: Malme-3M
NCI-H226 = tested on: NCI-H226
NCI-H23 = tested on: NCI-H23
NCI-H460 = tested on: NCI-H460
NCI-H522 = tested on: NCI-H522
NCI/ADR-RES = tested on: NCI/ADR-RES
OVCAR-3 = tested on: OVCAR-3
OVCAR-4 = tested on: OVCAR-4
OVCAR-5 = tested on: OVCAR-5
OVCAR-8 = tested on: OVCAR-8
PC-3 = tested on: PC-3
RPMI-8226 = tested on: RPMI-8226
RXF 393 = tested on: RXF 393
SF-268 = tested on: SF-268
SF-295 = tested on: SF-295
SF-539 = tested on: SF-539
SK-MEL-28 = tested on: SK-MEL-28
SK-MEL-2 = tested on: SK-MEL-2
SK-MEL-5 = tested on: SK-MEL-5
SN12C = tested on: SN12C
SNB-75 = tested on: SNB-75
SR = tested on: SR
SW-620 = tested on: SW-620
TK-10 = tested on: TK-10
U-251 = tested on: U-251
UACC-257 = tested on: UACC-257
UO-31 = tested on: UO-31
M14 = tested on: M14
SK-OV-3 = tested on: SK-OV-3
SNB-19 = tested on: SNB-19
T47D = tested on: T47D
UACC-62 = tested on: UACC-62

CS(=O)(=O)N1CC(CI)c2ccc(O)cc21 (stereo unspecified)
GI50 (786-0): 3.24 µM (inactive)
GI50 (A498): 2.77 µM (inactive)
GI50 (A549): 3.56 µM (inactive)
GI50 (ACHN): 2.67 µM (inactive)
GI50 (BT-549): 3.68 µM (inactive)
GI50 (CAKI-1): 1.96 µM (inactive)
GI50 (CCRF-CEM): 0.807 µM (active)
GI50 (COLO 205): 2.88 µM (inactive)
GI50 (DU-145): 3.05 µM (inactive)
GI50 (EKVX): 3.74 µM (inactive)
GI50 (HCC 2998): 2.08 µM (inactive)
GI50 (HCT-116): 2.98 µM (inactive)
GI50 (HCT-15): 3.13 µM
GI50 (HL-60): 1.79 µM (inactive)
GI50 (HOP-62): 3.02 µM (inactive)
GI50 (HOP-92): 2.18 µM (inactive)
GI50 (HT-29): 3.4 µM (inactive)
GI50 (Hs-578T): 3.41 µM (inactive)
GI50 (IGROV-1): 3.98 µM (inactive)
GI50 (K562): 2.66 µM (inactive)
GI50 (KM12): 3.59 µM (inactive)
GI50 (LOX IMVI): 3.21 µM (inactive)
GI50 (MCF7): 0.925 µM (active)
GI50 (MDA-MB-231): 2.84 µM (inactive)
GI50 (MDA-MB-435): 1.89 µM (inactive)
GI50 (MDA-N): 2.54 µM (inactive)
GI50 (MOLT-4): 0.809 µM (active)
GI50 (Malme-3M): 1.93 µM (inactive)
GI50 (NCI-H226): 3.5 µM (inactive)
GI50 (NCI-H23): 1.32 µM (inactive)
GI50 (NCI-H460): 2.35 µM (inactive)
GI50 (NCI-H522): 1.15 µM (inactive)
GI50 (NCI/ADR-RES): 2.75 µM (inactive)
GI50 (OVCAR-3): 2.89 µM (inactive)
GI50 (OVCAR-4): 1.96 µM (inactive)
GI50 (OVCAR-5): 2.29 µM (inactive)
GI50 (OVCAR-8): 2.89 µM (inactive)
GI50 (PC-3): 2.6 µM (inactive)
GI50 (RPMI-8226): 1.61 µM (inactive)
GI50 (RXF 393): 1.07 µM (active)
GI50 (SF-268): 1.32 µM (inactive)
GI50 (SF-295): 3.51 µM (inactive)
GI50 (SF-539): 2.99 µM (inactive)
GI50 (SK-MEL-28): 3.23 µM (inactive)
GI50 (SK-MEL-2): 2.1 µM (inactive)
GI50 (SK-MEL-5): 1.43 µM (inactive)
GI50 (SN12C): 3.44 µM (inactive)
GI50 (SNB-75): 1.79 µM (inactive)
GI50 (SR): 1.4 µM (inactive)
GI50 (SW-620): 2.18 µM (inactive)
GI50 (TK-10): 2.28 µM (inactive)
GI50 (U-251): 2.49 µM (inactive)
GI50 (UACC-257): 3.36 µM (inactive)
GI50 (UO-31): 3.35 µM (inactive)

COC1=C[C@]2(CCC(=O)O2)[C@@H]2Cc3ccccc3[C@H](O)[C@@H]2C1=O
GI50 (786-0): 70.5 µM (inactive)
GI50 (A498): > 100 µM (inactive)
GI50 (A549): > 100 µM (inactive)
GI50 (ACHN): 49.2 µM (inactive)
GI50 (BT-549): 49.3 µM (inactive)
GI50 (CAKI-1): 47.6 µM (inactive)
GI50 (CCRF-CEM): 15.1 µM (inactive)
GI50 (COLO 205): > 100 µM (inactive)
GI50 (EKVX): > 100 µM (inactive)
GI50 (HCC 2998): > 100 µM (inactive)
GI50 (HCT-116): 30.5 µM (inactive)
GI50 (HCT-15): 41.1 µM
GI50 (HL-60): 25.7 µM (inactive)
GI50 (HOP-62): 69.3 µM (inactive)
GI50 (HOP-92): 78.3 µM (inactive)
GI50 (HT-29): > 100 µM (inactive)
GI50 (Hs-578T): > 100 µM (inactive)
GI50 (IGROV-1): 82.6 µM (inactive)
GI50 (K562): 38.4 µM (inactive)
GI50 (KM12): > 100 µM (inactive)
GI50 (LOX IMVI): 28.7 µM (inactive)
GI50 (M14): > 100 µM (inactive)
GI50 (MCF7): 44 µM (inactive)
GI50 (MDA-MB-231): 34.6 µM (inactive)
GI50 (MDA-MB-435): 16.9 µM (inactive)
GI50 (MDA-N): 15.8 µM (inactive)
GI50 (MOLT-4): 17.9 µM (inactive)
GI50 (Malme-3M): 24.5 µM (inactive)
GI50 (NCI-H226): 86.5 µM (inactive)
GI50 (NCI-H23): 40.3 µM (inactive)
GI50 (NCI-H460): 85.9 µM (inactive)
GI50 (NCI-H522): 21.7 µM (inactive)
GI50 (NCI/ADR-RES): 97.9 µM (inactive)
GI50 (OVCAR-3): 28.5 µM (inactive)
GI50 (OVCAR-4): 43.2 µM (inactive)
GI50 (OVCAR-5): > 100 µM (inactive)
GI50 (OVCAR-8): 38 µM (inactive)
GI50 (PC-3): 31.2 µM (inactive)
GI50 (RPMI-8226): 18.1 µM (inactive)
GI50 (SF-268): 68.9 µM (inactive)
GI50 (SF-295): > 100 µM (inactive)
GI50 (SK-MEL-28): > 100 µM (inactive)
GI50 (SK-MEL-2): 28.6 µM (inactive)
GI50 (SK-MEL-5): 17.5 µM (inactive)
GI50 (SK-OV-3): > 100 µM (inactive)
GI50 (SN12C): 47.6 µM (inactive)
GI50 (SNB-19): > 100 µM (inactive)
GI50 (SR): 19.5 µM (inactive)
GI50 (SW-620): 28.4 µM (inactive)
GI50 (T47D): 13.1 µM (inactive)
GI50 (TK-10): > 100 µM (inactive)
GI50 (U-251): 27.7 µM (inactive)
GI50 (UACC-257): 22.1 µM (inactive)
GI50 (UACC-62): 24.8 µM (inactive)
GI50 (UO-31): 39.8 µM (inactive)

c1ccc2c(c1)N=C(NC1CCCCC1)CCN2
GI50 (786-0): > 100 µM (inactive)
GI50 (A498): > 100 µM (inactive)
GI50 (A549): > 100 µM (inactive)
GI50 (ACHN): > 100 µM (inactive)
GI50 (BT-549): > 100 µM (inactive)
GI50 (CAKI-1): > 100 µM (inactive)
GI50 (CCRF-CEM): > 100 µM (inactive)
GI50 (COLO 205): > 100 µM (inactive)
GI50 (DU-145): > 100 µM (inactive)
GI50 (EKVX): > 100 µM (inactive)
GI50 (HCT-116): > 100 µM (inactive)
GI50 (HCT-15): > 100 µM
GI50 (HL-60): > 100 µM (inactive)
GI50 (HOP-62): > 100 µM (inactive)
GI50 (HT-29): 77.6 µM (inactive)
GI50 (Hs-578T): > 100 µM (inactive)
GI50 (IGROV-1): 33.1 µM (inactive)
GI50 (K562): 81.3 µM (inactive)
GI50 (KM12): > 100 µM (inactive)
GI50 (M14): > 100 µM (inactive)
GI50 (MDA-MB-231): > 100 µM (inactive)
GI50 (MDA-MB-435): > 100 µM (inactive)
GI50 (MDA-N): > 100 µM (inactive)
GI50 (MOLT-4): 63.2 µM (inactive)
GI50 (Malme-3M): > 100 µM (inactive)
GI50 (NCI-H226): > 100 µM (inactive)
GI50 (NCI-H23): > 100 µM (inactive)
GI50 (NCI-H460): > 100 µM (inactive)
GI50 (NCI-H522): > 100 µM (inactive)
GI50 (NCI/ADR-RES): > 100 µM (inactive)
GI50 (OVCAR-3): > 100 µM (inactive)
GI50 (OVCAR-4): > 100 µM (inactive)
GI50 (OVCAR-5): > 100 µM (inactive)
GI50 (OVCAR-8): > 100 µM (inactive)
GI50 (PC-3): > 100 µM (inactive)
GI50 (RPMI-8226): > 100 µM (inactive)
GI50 (RXF 393): > 100 µM (inactive)
GI50 (SF-268): > 100 µM (inactive)
GI50 (SF-295): > 100 µM (inactive)
GI50 (SK-MEL-28): > 100 µM (inactive)
GI50 (SK-MEL-2): > 100 µM (inactive)
GI50 (SK-MEL-5): > 100 µM (inactive)
GI50 (SK-OV-3): > 100 µM (inactive)
GI50 (SN12C): > 100 µM (inactive)
GI50 (SNB-19): > 100 µM (inactive)
GI50 (SNB-75): 22 µM (inactive)
GI50 (SW-620): > 100 µM (inactive)
GI50 (TK-10): > 100 µM (inactive)
GI50 (U-251): > 100 µM (inactive)
GI50 (UACC-257): > 100 µM (inactive)
GI50 (UACC-62): > 100 µM (inactive)
GI50 (UO-31): > 100 µM (inactive)
